We go through four molecules from ChEMBL document CHEMBL5050829, “Inhibitors of cytochrome P450 family 7 subfamily B member 1 (CYP7B1) for use in treating diseases” (2021).

The species named for assay [1] is Mus musculus. Nature of the assay: Inhibition of Cyp7b1 in cigarette smoke extract (CSE)-stimulated mouse airways at 1 uM assessed as impairment of activated B-cell migration towards supernatant culture relative to control. The format is tissue-based. To be noted: Respiratory airway.
For assay [2], the species on record is Mus musculus. Nature of the assay: Inhibition of Cyp7b1 in cigarette smoke extract (CSE)-stimulated mouse airways at 0.1 to 1 uM assessed as impairment of activated B-cell migration towards supernatant culture relative to control. The format is tissue-based. The note with it: Respiratory airway, dose 0.1-1 µM.
Assay [3] deals with Mus musculus. Nature of the assay: Protection against cigarette smoke-induced COPD in C57BL/6 mouse exposed with cigarette smoke for 6 months assessed as reduction in lung volume at 80 mg/kg, ip administered 3 times per week from 2 to 4 months. It is filed as functional, organism-based.
Assay [4] deals with B cell. Nature of the assay: Inhibition of Cyp7b1 in cigarette smoke extract (CSE) and LPS-stimulated mouse B cells at 0.3 to 1 uM assessed as reduction in TNF-alpha mRNA expression and measured by RT-PCR analysis relative to control. The format is cell-based. The note with it: dose 0.3-1 µM.
For assay [5], the system named is Mus musculus. Nature of the assay: Protection against cigarette smoke-induced COPD in C57BL/6 mouse exposed with cigarette smoke for 4 months assessed as reduction in macrophage count in BALF at 80 mg/kg, ip administered 3 times per week from 2 to 4 months. It is filed as functional, organism-based.
Assay [6] concerns Mus musculus. Nature of the assay: Protection against cigarette smoke-induced COPD in C57BL/6 mouse exposed with cigarette smoke for 6 months assessed as reduction in macrophage count in BALF at 80 mg/kg, ip administered 3 times per week from 2 to 4 months. The format is functional, organism-based.
Assay [7] concerns B cell. Nature of the assay: Inhibition of Cyp7b1 in cigarette smoke extract (CSE) and LPS-stimulated mouse B cells at 0.3 to 1 uM assessed as reduction in Ch25h mRNA expression and measured by RT-PCR analysis relative to control. The format is cell-based. To be noted: dose 0.3-1 µM.
Assay [8] relates to Mus musculus. Nature of the assay: Protection against cigarette smoke-induced COPD in C57BL/6 mouse exposed with cigarette smoke for 6 months assessed as reduction in emphysema in lungs at 80 mg/kg, ip administered 3 times per week from 2 to 4 months. It is filed as functional, organism-based. To be noted: Lung.
Assay [9] is filed under the species Mus musculus. Nature of the assay: Inhibition of Cyp7b1 in cigarette smoke extract (CSE)-stimulated mouse airways at 1 uM assessed as reduction in cyp7b1 mRNA expression relative to control. The format is tissue-based. To be noted: Respiratory airway.
Assay [10] concerns Mus musculus. Nature of the assay: Protection against cigarette smoke-induced COPD in C57BL/6 mouse exposed with cigarette smoke for 4 months assessed as reduction in emphysema in lungs at 80 mg/kg, ip administered 3 times per week from 2 to 4 months. To be noted: Lung. The format is functional, organism-based.
The test system of assay [11] is Mus musculus. Nature of the assay: Protection against cigarette smoke-induced COPD in C57BL/6 mouse exposed with cigarette smoke for 4 months assessed as reduction in lung volume at 80 mg/kg, ip administered 3 times per week from 2 to 4 months. The format is functional, organism-based.
For assay [12], the system named is Mus musculus. Nature of the assay: Protection against cigarette smoke-induced COPD in C57BL/6 mouse exposed with cigarette smoke for 4 months assessed as reduction in lymphocyte count in BALF at 80 mg/kg, ip administered 3 times per week from 2 to 4 months. It is filed as functional, organism-based.
Assay [13] is filed under the species Mus musculus. Nature of the assay: Inhibition of Cyp7b1 in cigarette smoke extract (CSE)-stimulated mouse airways at 1 uM assessed as reduction in Ch25h mRNA expression relative to control. It is filed as tissue-based. To be noted: Respiratory airway.
For assay [14], the system named is B cell. Nature of the assay: Inhibition of Cyp7b1 in cigarette smoke extract (CSE) and LPS-stimulated mouse B cells at 0.3 to 1 uM assessed as reduction in cyp7b1 mRNA expression and measured by RT-PCR analysis relative to control. It is filed as cell-based. The note with it: dose 0.3-1 µM.
Assay [15] relates to Mus musculus. Nature of the assay: Protection against cigarette smoke-induced COPD in C57BL/6 mouse exposed with cigarette smoke for 4 months assessed as reduction in iBALT formation in lungs at 80 mg/kg, ip administered 3 times per week from 2 to 4 months. The format is functional, organism-based. To be noted: Lung.
Assay [16] deals with Mus musculus. Nature of the assay: Protection against cigarette smoke-induced COPD in C57BL/6 mouse exposed with cigarette smoke for 6 months assessed as reduction in iBALT formation in lungs at 80 mg/kg, ip administered 3 times per week from 2 to 4 months. The format is functional, organism-based. The note with it: Lung.

Structures are written as SMILES. Calls of active or inactive are those of the source. The rule behind the calls is not given here.

Turning to `Clc1ccc(COC(Cn2ccnc2)c2ccc(Cl)cc2Cl)c(Cl)c1` (stereo not drawn), the inhibition entry in the assay filed under Mus musculus [1] was “Active”.

As for `CC(C)(C(=O)c1cccnc1)c1cccnc1`, the inhibition entry in the assay filed under Mus musculus [1] is “Active”.

As to `CC(C)c1nc(CN(C)C(=O)N[C@H](C(=O)N[C@@H](Cc2ccccc2)C[C@H](O)[C@H](Cc2ccccc2)NC(=O)OCc2cncs2)C(C)C)cs1`, in the assay filed under Mus musculus [2], the inhibition entry was “Active”.

For the molecule `Clc1ccccc1C(c1ccccc1)(c1ccccc1)n1ccnc1`, the result in the assay with Mus musculus [3], in the assay on Mus musculus [5], in the assay with Mus musculus [6], with Mus musculus [8], in the assay with Mus musculus [10] and in the assay on Mus musculus [11] was Active. Further, the outcome in the assay with Mus musculus [12], in the assay with Mus musculus [15] and with Mus musculus [16] was Active. Further, the inhibition entry in the assay on B cell [4], with B cell [7], in the assay listed under Mus musculus [9], in the assay with B cell [14] and in the assay filed under Mus musculus [1] was “Active” in each case. Besides, in the assay filed under Mus musculus [13], the inhibition result is “inactive”.
